Assays:
[1] = system: feline calicivirus F4 strain; assay: Inactivation of feline caliciviruses (Example 10), plaque assay on CRFK cells; type: cell-based; settings: 30 minutes at 25° C. (FIG. 10)
[2] = system: feline calicivirus F4 strain; assay: In vitro test in test tube, feline caliciviruses (Example 11); type: cell-based

OCl [Sodium hypochlorite aqueous solution, sodium hypochlorite]
effect of pH on inactivation of feline caliciviruses ([1]; pH 4.5 and pH 7.5): greatly affected by pH | feline caliciviruses inactivation capability ([1]; pH of 4.5): lost | number of infectious viruses ([2]; pH 5.5, 25 ppm, contact 0 min): 5.4 ± 1.7 log CPU/mL | number of infectious viruses ([2]; pH 5.5, 50 ppm, contact 0 min): 5.4 ± 1.7 log CPU/mL | number of infectious viruses ([2]; pH 5.5, 100 ppm, contact 0 min): 5.4 ± 1.7 log CPU/mL | number of infectious viruses ([2]; pH 5.5, 200 ppm, contact 0 min): 5.4 ± 1.7 log CPU/mL | number of infectious viruses ([2]; pH 5.5, 200 ppm, contact 5 min): 3.7 ± 1.8 log CPU/mL | number of infectious viruses ([2]; pH 5.5, 200 ppm, contact 10 min): 2.6 ± 1.8 log CPU/mL | number of infectious viruses ([2]; pH 5.5, 400 ppm, contact 0 min): 5.4 ± 1.7 log CPU/mL | number of infectious viruses ([2]; pH 5.5, 400 ppm, contact 1 min): <2.0 log CPU/mL | number of infectious viruses ([2]; pH 5.5, 400 ppm, contact 5 min): <2.0 log CPU/mL | number of infectious viruses ([2]; pH 5.5, 400 ppm, contact 10 min): <2.0 log CPU/mL | number of infectious viruses ([2]; pH 6.5, 25 ppm, contact 0 min): 6.1 ± 2.1 log CPU/mL | number of infectious viruses ([2]; pH 6.5, 50 ppm, contact 0 min): 6.1 ± 2.1 log CPU/mL | number of infectious viruses ([2]; pH 6.5, 100 ppm, contact 0 min): 6.1 ± 2.1 log CPU/mL | number of infectious viruses ([2]; pH 6.5, 200 ppm, contact 0 min): 6.1 ± 2.1 log CPU/mL | number of infectious viruses ([2]; pH 6.5, 200 ppm, contact 5 min): 3.3 ± 2.9 log CPU/mL | number of infectious viruses ([2]; pH 6.5, 200 ppm, contact 10 min): <2.0 log CPU/mL | number of infectious viruses ([2]; pH 6.5, 400 ppm, contact 0 min): 6.1 ± 2.1 log CPU/mL | number of infectious viruses ([2]; pH 6.5, 400 ppm, contact 1 min): <2.0 log CPU/mL | number of infectious viruses ([2]; pH 6.5, 400 ppm, contact 5 min): <2.0 log CPU/mL | number of infectious viruses ([2]; pH 6.5, 400 ppm, contact 10 min): <2.0 log CPU/mL | number of infectious viruses ([2]; pH 7.5, 25 ppm, contact 0 min): 5.2 ± 2.6 log CPU/mL | number of infectious viruses ([2]; pH 7.5, 50 ppm, contact 0 min): 5.2 ± 2.6 log CPU/mL | number of infectious viruses ([2]; pH 7.5, 50 ppm, contact 5 min): 4.4 ± 1.8 log CPU/mL | number of infectious viruses ([2]; pH 7.5, 50 ppm, contact 10 min): <2.0 log CPU/mL | number of infectious viruses ([2]; pH 7.5, 100 ppm, contact 0 min): 5.2 ± 2.6 log CPU/mL | number of infectious viruses ([2]; pH 7.5, 100 ppm, contact 5 min): 3.4 ± 1.8 log CPU/mL | number of infectious viruses ([2]; pH 7.5, 100 ppm, contact 10 min): <2.0 log CPU/mL | number of infectious viruses ([2]; pH 7.5, 200 ppm, contact 0 min): 5.2 ± 2.6 log CPU/mL | number of infectious viruses ([2]; pH 7.5, 200 ppm, contact 1 min): 2.5 ± 1.8 log CPU/mL | number of infectious viruses ([2]; pH 7.5, 200 ppm, contact 5 min): <2.0 log CPU/mL | number of infectious viruses ([2]; pH 7.5, 200 ppm, contact 10 min): <2.0 log CPU/mL | number of infectious viruses ([2]; pH 7.5, 400 ppm, contact 0 min): 5.2 ± 2.6 log CPU/mL | number of infectious viruses ([2]; pH 7.5, 400 ppm, contact 1 min): <2.0 log CPU/mL | number of infectious viruses ([2]; pH 7.5, 400 ppm, contact 5 min): <2.0 log CPU/mL | number of infectious viruses ([2]; pH 7.5, 400 ppm, contact 10 min): <2.0 log CPU/mL | number of infectious viruses ([2]; pH 8.5, 25 ppm, contact 0 min): 4.7 ± 2.8 log CPU/mL | number of infectious viruses ([2]; pH 8.5, 50 ppm, contact 0 min): 4.7 ± 2.8 log CPU/mL | number of infectious viruses ([2]; pH 8.5, 50 ppm, contact 1 min): 4.6 ± 3.2 log CPU/mL | number of infectious viruses ([2]; pH 8.5, 50 ppm, contact 5 min): 3.5 ± 2.1 log CPU/mL | number of infectious viruses ([2]; pH 8.5, 50 ppm, contact 10 min): <2.0 log CPU/mL | number of infectious viruses ([2]; pH 8.5, 100 ppm, contact 0 min): 4.7 ± 2.8 log CPU/mL | number of infectious viruses ([2]; pH 8.5, 100 ppm, contact 1 min): 3.7 ± 2.6 log CPU/mL | number of infectious viruses ([2]; pH 8.5, 100 ppm, contact 5 min): <2.0 log CPU/mL | number of infectious viruses ([2]; pH 8.5, 100 ppm, contact 10 min): <2.0 log CPU/mL | number of infectious viruses ([2]; pH 8.5, 200 ppm, contact 0 min): 4.7 ± 2.8 log CPU/mL | number of infectious viruses ([2]; pH 8.5, 200 ppm, contact 1 min): 2.5 ± 2.3 log CPU/mL | number of infectious viruses ([2]; pH 8.5, 200 ppm, contact 5 min): <2.0 log CPU/mL | number of infectious viruses ([2]; pH 8.5, 200 ppm, contact 10 min): <2.0 log CPU/mL | number of infectious viruses ([2]; pH 8.5, 400 ppm, contact 0 min): 4.7 ± 2.8 log CPU/mL | number of infectious viruses ([2]; pH 8.5, 400 ppm, contact 1 min): <2.0 log CPU/mL | number of infectious viruses ([2]; pH 8.5, 400 ppm, contact 5 min): <2.0 log CPU/mL | number of infectious viruses ([2]; pH 8.5, 400 ppm, contact 10 min): <2.0 log CPU/mL | number of infectious viruses ([2]; pH unadjusted, 25 ppm, contact 0 min): 6.4 ± 2.7 log CPU/mL | number of infectious viruses ([2]; pH unadjusted, 25 ppm, contact 10 min): >10^6 log CPU/mL | number of infectious viruses ([2]; pH unadjusted, 50 ppm, contact 0 min): 6.4 ± 2.7 log CPU/mL | number of infectious viruses ([2]; pH unadjusted, 50 ppm, contact 1 min): 3.5 ± 2.1 log CPU/mL | number of infectious viruses ([2]; pH unadjusted, 50 ppm, contact 5 min): 2.9 ± 2.7 log CPU/mL | number of infectious viruses ([2]; pH unadjusted, 50 ppm, contact 10 min): <2.0 log CPU/mL | number of infectious viruses ([2]; pH unadjusted, 100 ppm, contact 0 min): 6.4 ± 2.7 log CPU/mL | number of infectious viruses ([2]; pH unadjusted, 100 ppm, contact 1 min): <2.0 log CPU/mL | number of infectious viruses ([2]; pH unadjusted, 100 ppm, contact 5 min): <2.0 log CPU/mL | number of infectious viruses ([2]; pH unadjusted, 100 ppm, contact 10 min): <2.0 log CPU/mL | number of infectious viruses ([2]; pH unadjusted, 200 ppm, contact 0 min): 6.4 ± 2.7 log CPU/mL | number of infectious viruses ([2]; pH unadjusted, 200 ppm, contact 1 min): <2.0 log CPU/mL | number of infectious viruses ([2]; pH unadjusted, 200 ppm, contact 5 min): <2.0 log CPU/mL

Source: patent US20160113282A1 (HONBU SANKEI CO., LTD., priority 2013, published 2016)
